Measured values as given in publication PMC10009108, “Design, synthesis and screening of indole acetic acid-based tri-azo moieties as antioxidants, anti-microbial and cytotoxic agents” (Frontiers in Pharmacology, 2023).
Values after ≈ are worked out from the molar mass of the structure shown. Values belong to the compound of their own block, whether it stands above or below them.

Experiments:
[1] = tested on: Mucor species (FCBP-0300); test: Antifungal disc diffusion assay; type: cell-based; conditions: Mucor; 20 μg/disc
Method: (§1) The antifungal response to these chemical moieties was evaluated through a procedure designated by ([Zahra et al., 2017]). Amphotericin B (4 mg/mL DMSO) is used as + ve control and DMSO as-ve one (5 μL/disc). Sterile SDA-coated plates were used, on which 100 µL of suspension of spores for each strain (previously reaped-in-Tween-20 solution) was spread. Discs of sterile filter paper containing 5 µL of sample solution (4 mg/mL DMSO) were kept on plates and incubated for 2 days at 28°C. Zones of inhibition were recorded.
(§2) The Synthetic compound library was subjected to an antifungal assay using five different strains of Fungai, i.e., Fusarium solani (FCBP-0291), Aspergillus fumigatus (FCBP-66), Aspergillus flavus (FCBP-0064), Aspergillus niger (FCBP-0198) and Mucor species (FCBP-0300). Amphotericin B was the standard drug used. […] The outcomes are concise in Table 5.

[2] = tested on: Aspergillus niger (FCBP-0198); test: Antifungal disc diffusion assay; type: cell-based; conditions: Aspergillus niger; 20 μg/disc
Method: as §1, §2

[3] = tested on: Aspergillus flavus (FCBP-0064); test: Antifungal disc diffusion assay; type: cell-based; conditions: Aspergillus flavus; 20 μg/disc
Method: as §1, §2

[4] = tested on: Aspergillus fumigatus (FCBP-66); test: Antifungal disc diffusion assay; type: cell-based; conditions: Aspergillus fumigatus; 20 μg/disc
Method: as §1, §2

[5] = tested on: Fusarium solani (FCBP-0291); test: Antifungal disc diffusion assay; type: cell-based; conditions: Fusarium solani, 20 μg/disc; read-out: Zone of inhibition, F. solani
Method: as §1, §2

[6] = tested on: Bacillus subtilis (ATCC-6633); test: Antibacterial assay, micro broth dilution; type: cell-based; set-up: key to Antibacterial activity, Bacillus subtilis: Activity: Active = Bacterial activity; --- = no activity
Excerpt: (§3) The micro broth dilution method was used to establish the antibacterial potential of test samples against Staphylococcus aureus (ATCC-6538), Bacillus subtilis (ATCC-6633), Escherichia coli (ATCC-25922), Klebsiella pneumoniae (ATCC-1705), and Pseudomonas aeruginosa (ATCC-15442) and for the resistant strains of MRSA Staphylococcus aureus, P. aeruginosa and Escherichia coli. The procedure used is described by ([Sarker et al., 2007]). Bacterial inoculum was formed under aseptic conditions keeping the density near 5 × 10^4 CFU/mL in pre-autoclaved nutrient broth. Test samples of an aliquot of 5 µL were shifted to labeled wells of 96 well plates, and after that addition of 195 µL of nutrient broth; was accomplished. After that, a 2-fold serial dilution of every sample was arranged to get final concentrations of 12.5 μg/mL. Then, with the help of a micropipette, 195 µL of bacterial culture of respective strains was poured into each well; further advancement was incubating of plates for 30 min at the temperature of 37°C. […] Incubation of plates was again carried out at 37°C for 1 day, absorbance was noted, and net change in turbidity was the difference between two values of absorbance.
(§4) Schiff base tri-azo compounds were investigated for antibacterial potential. […] 6.25 μg/mL for 5b and 5g, and the least, Table 4 3.12 μg/mL was for 5f. […] Substituents with electron-withdrawing attributes, e.g., -NO2, -Cl, -OH on the aromatic ring, assert a great impact on the antibacterial activity of synthetic compounds. It is also observed that an increase in the number of -OH groups tend to enhance the activity ([Hosamani and Shingalapur, 2011]). Due to the difference in cell-wall composition of Gram + ve and -ve bacteria, different compounds show different features towards the same micro-organism ([Goszczyn’ska et al., 2015]).

[7] = tested on: Escherichia coli (ATCC-25922); test: Antibacterial assay, micro broth dilution; type: cell-based; conditions: ATCC25922, read-out: E. coli MIC
Excerpt: as §3, §4

[8] = tested on: Klebsiella pneumoniae (ATCC-1705); test: Antibacterial assay, micro broth dilution; type: cell-based; conditions: ATCC1705
Excerpt: as §3, §4

[9] = tested on: Pseudomonas aeruginosa (ATCC-15442); test: Antibacterial assay, micro broth dilution; type: cell-based; conditions: ATCC15442
Excerpt: as §3, §4

[10] = tested on: Staphylococcus aureus (ATCC-6538); test: Antibacterial assay, micro broth dilution; type: cell-based; conditions: ATCC6538, read-out: S. aureus MIC
Excerpt: as §3, §4

resistant S. aureus = test: Antibacterial assay, resistant strains; type: cell-based, Staphylococcus aureus; conditions: resistant strain
Excerpt: as §3, §4

MRSA [11] = test: Antibacterial assay, resistant strains; type: cell-based; conditions: Staphylococcus aureus, resistant strain
Excerpt: as §3, §4

resistant P. aeruginosa = test: Antibacterial assay, resistant strains; type: cell-based; conditions: resistant strain
Excerpt: as §3, §4

resistant E.coli = test: Antibacterial assay, resistant strains; type: cell-based, Escherichia coli; conditions: resistant strain
Excerpt: as §3, §4

[12] = tested on: Staphylococcus aureus (ATCC-6538); test: Antibacterial assay, micro broth dilution; type: cell-based; set-up: key: Active = Bacterial activity; --- = no activity; conditions: 25 μg/mL
[13] = tested on: Pseudomonas aeruginosa (ATCC-15442); test: Antibacterial assay, micro broth dilution; type: cell-based; set-up: key: Active = Bacterial activity; --- = no activity; conditions: 25 μg/mL
[14] = tested on: Klebsiella pneumoniae (ATCC-1705); test: Antibacterial assay, micro broth dilution; type: cell-based; set-up: key: Active = Bacterial activity; --- = no activity; conditions: 25 μg/mL
[15] = tested on: Escherichia coli (ATCC-25922); test: Antibacterial assay, micro broth dilution; type: cell-based; set-up: key: Active = Bacterial activity; --- = no activity; conditions: 25 μg/mL
MRSA [16] = test: Antibacterial assay, resistant strains; type: cell-based, Staphylococcus aureus; conditions: 25 μg/mL; resistant strain
in vivo = test: in vivo
Method: The cytotoxic evaluation was accomplished using the decorum designed by ([Khan et al., 2011]). To a plate of 96 wells, artificial seawater and nauplii were added. Test samples were taken in wells (40, 20, 10, 5 μg/mL) after making up the final volume with seawater, the plates were left uncovered under the lamp, and after 24 h, the number of surviving larvae was calculated. For samples having ≥50% mortality, the median lethal conc was calculated using the table curve software, Doxorubicin was used as + ve control, and DMSO was the -ve. The percentage of killed organisms was found using the formula. Percentage Mortality=No of dead shrimps÷Total Number of Shrimps×100
The results of all the experiments were articulated as mean ± SD. Each test was performed in triplicate. TAC assay was analyzed by one-way analysis of variance (ANOVA) following DUNCAN’S test using the statistical package for social sciences 18 and p < 0.05 was considered as significant where appropriate. For samples having ≥50% mortality, the median lethal concentration (LC50) was calculated using the table curve software.
This evaluation test forms the basis for the bioactive scanning of compounds for their potential as anti-cancer moieties, to be investigated on a large scale ([Amanullah et al., 2012]). […] Similarities between Artemia salina and mammalian cells have been reported due to DNA-dependent RNA polymerases ([Birndorf et al., 1975]). These Schiff bases were investigated for their cytotoxic potential. […] Doxorubicin was used as the positive control.

[17] = tested on: Streptomyces 85 E strains; test: Protein kinase inhibition assay; type: cell-based; set-up: key: Active = Bacterial activity; --- = no activity; conditions: Sample Concentration = 20 μg/mL; Surfactin B 20 μg/mL
Method: The protocol followed for this is mentioned ([Fatima et al., 2015]). To assess the test compound’s inhibitory potential, Streptomyces 85 E strains were used, which were refreshed in tryptone soya broth at 37 for 1 day. Spores from refreshed cultures were utilized to prepare the bacterial culture. 100 μg compound was loaded on 5 mm discs of filter paper. These were kept on sowed plates. DMSO-permeated discs were the -ve control. The incubation period was 7 days, and outcomes were stated as bald and clear zones of inhibition.
These synthetic products were evaluated to estimate the inhibitory potential for protein kinase of […] 85 E. Protein kinase is involved with the mycelium production of this species, so the growth patterns were observed as the bald zone. […] One of the propitious targets in cancer treatment is the inhibition of protein kinases. Protein phosphorylation by protein kinases at various residues regulates diverse biological processes, which may include apoptosis, proliferation and differentiation of cells. Deregulation at any step in early tumorigenesis may lead to cancer ([Yao et al., 2011]). Aerial hyphae formation in Streptomyces depends upon protein kinase activity; this scenario is exploited in this test; to inquire about these compounds’ kinase inhibition potential and to look at their anti-cancer potential. The advantage of using Streptomyces for kinase inhibition assay is its predisposition to a wide range of eukaryotic cells. Whole-cell assay of Streptomyces not only identifies the compound’s cytotoxic potential but also identifies signal transduction inhibitors for various activities, e.g., antitumor, anti-mycobacterial, and anti-infective ([Waters et al., 2002]). […] Activity with a bald zone of 10.5 mm and a clear zone of 7.5 mm, following is 5a with a bald zone of 9 mm and a clear zone of 6 mm, and for 5g, values are 7.5 and 6 mm, respectively. It means that these compounds have the potential for protein kinase inhibition as well as the toxicity of the compound.

[18] = tested on: Streptomyces 85 E strains; test: Protein kinase inhibition assay; type: cell-based; conditions: Sample Concentration = 20 μg/mL; Surfactin B 20 μg/mL

Compound: C[C@@H]1[C@H](O)[C@@H](C)/C=C/C=C/C=C/C=C/C=C/C=C/C=C/[C@H](O[C@@H]2O[C@H](C)[C@@H](O)[C@H](N)[C@@H]2O)C[C@@H]2O[C@](O)(C[C@@H](O)C[C@@H](O)[C@H](O)CC[C@@H](O)C[C@@H](O)CC(=O)O[C@H]1C)C[C@H](O)[C@H]2C(=O)O [Amphotericin B, reference compound]
zone of inhibition at 20 µg/disc [1]: 11.5 mm | zone of inhibition at 20 µg/disc [2]: 12.5 mm | zone of inhibition at 20 µg/disc [3]: 12 mm | zone of inhibition at 20 µg/disc [4]: 10 mm | zone of inhibition at 20 µg/disc [5]: 11.5 mm

MIC ([6]; Bacillus subtilis, ATCC6633): 3.12 µg/mL (≈ 9.42 µM) | MIC [7]: 3.12 µg/mL (≈ 9.42 µM) | MIC [8]: 3.12 µg/mL (≈ 9.42 µM) | MIC [9]: 3.12 µg/mL (≈ 9.42 µM) | MIC [10]: 3.12 µg/mL (≈ 9.42 µM) | MIC (resistant S. aureus; Staphylococcus aureus): 3.12 µg/mL (≈ 9.42 µM) | MIC (MRSA [11]): 3.12 µg/mL (≈ 9.42 µM) | MIC (resistant P. aeruginosa; Pseudomonas aeruginosa): 3.12 µg/mL (≈ 9.42 µM) | MIC (resistant E.coli; Escherichia coli): 3.12 µg/mL (≈ 9.42 µM)
Compound: O=C(O)c1cn(C2CC2)c2cc(N3CCNCC3)c(F)cc2c1=O [Ciprofloxacin, reference compound]
Antibacterial activity, Bacillus subtilis: Activity ([6]; 25 μg/mL): Active | Antibacterial activity, resistant S. aureus: Activity (resistant S. aureus; 25 μg/mL): Active | Antibacterial activity, resistant P. aeruginosa: Activity (resistant P. aeruginosa; 25 μg/mL): Active | Antibacterial activity, resistant E.coli: Activity (resistant E.coli; 25 μg/mL): Active | Antibacterial activity, S. aureus: Activity [12]: Active | Antibacterial activity, Pseudomonas aeruginosa: Activity [13]: Active | Antibacterial activity, Klebsiella pneumoniae: Activity [14]: Active | Antibacterial activity, E. coli: Activity [15]: Active | Antibacterial activity, MRSA: Activity (MRSA [16]): Active

Compound: COc1cccc2c1C(=O)c1c(O)c3c(c(O)c1C2=O)C[C@@](O)(C(=O)CO)C[C@@H]3O[C@H]1C[C@H](N)[C@H](O)[C@H](C)O1 [Doxorubicin, reference compound]
LC50 at 24 h (in vivo): 5.7 µg/mL (≈ 10.5 µM)

Compound: Surfactin B [reference compound]
Clear zone [17]: --- | Bald zone [18]: 22.3 mm
